Consider one compound from US20120214821A1, “Lipidomic Biomarkers of Diabetes” (THE BROAD INSTITUTE, INC., priority 2011, published 2012).

One assay concerns plasma TAGs. The conditions noted are these: 20 non-diabetic individuals, after four doses of metformin 500 mg over two days (FIG. 6C). As to the method: (§1) Pharmacologic studies were performed as follows. […] After a washout period of 6 days, subjects received metformin 500 mg twice daily for two days in order to reduce hepatic gluconeogenesis, and then underwent a 75 g OGTT in the presence of metformin. […] From the first 164 subjects completing the protocol, 20 participants were selected who represented both high and low ends of the HOMA-IR range.
(§2) OGTT causes an acute rise in plasma glucose, which then triggers a rise in insulin.
(§3) After a washout period of 6 days, these 20 individuals were then administered four doses of metformin (500 mg) over two days. Although chronic metformin use decreases insulin resistance, its acute effect is to decrease hepatic glucose output, and as a result, lower plasma insulin (10).

For assay [1] the following is noted: 20 non-diabetic individuals, after four doses of metformin 500 mg over two days; baseline 95 mg/dL; p=0.022. As for the experimental part: as §1, §2, §3

Turning to `CN(C)C(=N)N=C(N)N` [metformin], the “TAG response (change of plasma TAGs by carbon number and double bond content)” value in the assay with plasma TAGs was “an increase in TAGs of lower carbon number and double bond content, and a decrease in TAGs of higher carbon number and double bond content”. The mean plasma glucose in assay [1] came out at 86 mg/dL.
